Data on 30 compounds can be found in EP4140481A1, “PROTEIN-OLIGOMER BINDING AGENTS AND THERAPEUTIC USES THEREOF” (Galyan Bio, Inc., priority 2021, dated 2023).

Read-outs that look alike come from different tables or passages of the source.

One assay concerns STHdh 7/7 striatal cells. As to the kind of experiment: Cell viability after heat shock (CellTiter Glo). The conditions noted are these: Mus musculus, 48 hours treatment, percentage in comparison to pre-heat shock cell viability, read-out: Cell Viability striatal cells 3h heat shocked. The assay is classed as cell-based. As to the method:
RESULTS-Table 12bsummarizes the effect of the compounds on cell viability. STHdh 7/7 were heat shocked for 3 hours and treated for 48 hours with small molecule compounds. Table 12b lists the cell viability in striatal cells after 48 hours.
Effect of Compound 22 on Cell Viability of Wildtype Striatal Neurons - STHdh 7/7 cells are striatal cells that express wildtype huntingtin. These cells were cultured in the same conditions as described above for STHdh 111/111. The neurons were first heat shocked for 3 hours at 41 °C as described above. After 48 hours of treatment with the small molecule Compounds, cell viability was determined using the method described above. The "buffer" control is represents cells treated with a buffer only, without any compounds added. Some of the compounds show higher cell viability in comparison to control heat shocked STHdh 7/7 neurons with buffer and no treatment (Figure 5).

For another assay, the target named is T1, mHTT (Homo sapiens, UniProt P42858).
T1 construct: host or cells: ST HDH Q111/111 mouse striatal cell line (knock-in locus)
As to the kind of experiment: mHTT levels in striatal cells (immunocytochemistry). It is filed as cell-based, mouse. The note with it: STHdh 111/111; for remaining activity at 10 µM / mHTT after treatment: 3 hours heat shock, 48 hours treatment, percentage in comparison to untreated STHdh 111/111, 3B5H10 antibody, 10 µM; for remaining activity at 10 µM: read-out: mHTT after treatment. As to the method:
(§1) Staining - Cells were permeabilized with 0.3% Triton X-100 in 4 °C PBS (pH 7.4 from ThermoFisher) for 10 minutes. Then the cells were washed two times with 4 °C PBS. Subsequently, cells are blocked with 3% NGS (normal goat serum from Thermo Fisher) in 4 ° C PBS for 1 hour. Cells were incubated with primary antibodies in blocking buffer (PBS, 3% NGS, 0.02% NaN3) over night at 4 °C. Primary antibodies were mouse antipolyglutamine monoclonal antibody 3B5H10 (Sigma-Aldrich) at 1:250 dilution and Guinea Pig anti-MAP2 polyclonal antibody (Synaptic Systems) at 1:500 dilution. 3B5H10 binds to diffuse mHTT. Diffuse mHTT is a monomeric and small oligomeric mHTT. Diffuse mHTT is correlated to pathological parameters in Huntington's disease. Compounds that bind the mHTT will reduce the levels of diffuse mHTT detected.
Cells were washed 2 times with 4 °C PBS, and then incubated with secondary antibodies at 1:2000 dilution in blocking buffer for 1hour at room temperature. […] Cells were washed 2 times with 4 °C PBS, and then the nuclei were counterstain with DAPI (ThermoFisher) for 10 min at room temperature in the dark. Cells were washed 2 times with 4 °C PBS, and then 4 °C PBS was added to cells and then images were acquired. […] Table 11: Antibodies Used in Immunocytochemistry Studies
Fluorescence Imaging - Imaging sessions were performed on a confocal microscope system (Carl Zeiss Microscopy) equipped with a dual spinning disk unit (Yokogawa). All components of the imaging system were controlled via the ZEN 2 software suite (Carl Zeiss Microscopy). The laser lines used were 405 nm, 488 nm and 639 nm to excite DAPI or the respective fluorophores. […] Nested t test was performed to calculate the significance amongst repeated measurements using GraphPad Prism software.
as §1, with “For LC3 staining primary antibodies were mouse anti-LC3 mab (5F10) (nanoTools) at 1:500 dilution” for “3B5H10 binds to diffuse mHTT. Diffuse mHTT is a monomeric”, “Guinea Pig anti-MAP2 polyclonal antibody (Synaptic Systems) at 1:500 dilution.” for “small oligomeric mHTT. Diffuse mHTT is correlated to pathological parameters in Huntington's disease. Compounds that bind the mHTT will reduce the levels of diffuse mHTT detected.”
Cells were washed 2 times with 4 °C PBS, and then incubated with secondary antibodies at 1:2000 dilution in blocking buffer for 1hour at room temperature. […] Cells were washed 2 times with 4 °C PBS, and then the nuclei were counterstain with DAPI (ThermoFisher) for 10 min at room temperature in the dark. Cells were washed 2 times with 4 °C PBS, and then 4 °C PBS was added to cells and then images were acquired.
EC 50 value was determined with non-linear regression.

The test system of assay [1] is STHdh 111/111 striatal cells. As to the kind of experiment: Cell viability after heat shock (CellTiter Glo). The note with it: Mus musculus, read-out: Cell Viability striatal cells 3h heat shocked. In general terms: Cellular ATP, detected with luciferase, serves as a proxy for viable cell number.
Procedure: Cell culture - ST HDH Q111/111 (CH00095, Coriell Institute) striatal derived cell line were grown at 33°C in DMEM (Sigma-Aldrich), supplemented with 10% fetal bovine serum (FBS), 1% Penicillin-Streptomycin (ThermoFisher Scientific), and 0.4 mg/ml G418 (Geneticin; Invitrogen). ST HDH Q111/111 are mouse striatal cells with polyQ length of 111.
Pre-Treatment of striatal cell line - First the medium was removed and new DMEM (DMEM, high glucose, HEPES, no phenol red) medium, supplemented with 10% fetal bovine serum (FBS), 1% Penicillin-Streptomycin, containing 10 µM compound was added. The cells were incubated at 33 °C for 24 hours.
Heat shock - Cells were heat shocked for 3 hours at 41 °C.
Treatment - Medium was removed and new DMEM (DMEM, high glucose, HEPES, no phenol red) medium, supplemented with 1% fetal bovine serum (FBS), 1% Penicillin-Streptomycin, containing 10 µM compound was added. The cells were incubated at 33 °C for 48 hours.
Cell Viability - Cell viability was measured according to manufacturer recommendations with CellTiter Glo (Promega).
Another assay concerns the target Exon1 Q46 (Homo sapiens, UniProt P42858, INS38QQQQQQQQQQQQQQQQQQQQQQQQQ). As to the kind of experiment: Circular dichroism study. The conditions noted are these: Exon1 Q46. It is filed as binding. As to the method:
Protein samples were diluted with buffer to 7.5 µM prior to Circular Dichroism (CD) measurements. Measurements were conducted at room temperature.
Four spectra at each measurement were taken every 1 nm from 200 to 260 nm, scanning at 50 nm/min with an averaging time of 1 sec. Spectra were obtained from samples in 20 mM phosphate, pH 7.4. Ten scans were averaged for each sample spectrum
Single-wavelength readings at 222 nm were obtained. After subtraction of the Trx contribution, the α-helical content of Httex1 was estimated from its mean residue ellipticity (MREHttex1) at 222 nm. This calculation was conducted as described by Bravo-Arredondo (Bravo-Arredondo, J.M. et al., J Biol Chem. 2018 Dec 21;293(51):19613-19623).
MRE Exon-1 Q16 and Q46 (Mean Residue Ellipticity) was measured every 1 sec for 300 sec; the 301 readings for each sample were averaged and MRE Trx subtracted. The number of amino acids in each sample to experience a change in helicity was estimated using a previously developed helix-coil transition model, which gave the change in fraction of helicity (ΔfHelix) by the following equation: fHelix = (MREHttex1 −MRECoil)/(MREHelix −MRECoil) [formula] where MRE Exon1 Q26 or Q46 (MREHttex1 in the formula) describes the helix-coil transition, obtained from the difference between MRE Eon1 Q26 or Q46 at 222 nm of the fusion protein at the given temperature (in our case 37 °C) and the product of MRE Trx at 222 nm at the same temperature and the fraction of residues comprised by Trx in that particular construct, and MRECoil = 2220−53T,MREHelix =; (−44,000+250T)(1−(3)/(Nr)) [formula] given T as the temperature in °C and Nr as the number of residues.
In order to calculate an equilibrium of the two states model, percent α-helicity was calculated using the relation of MREHttex1 = 0 and -34700 (deg cm^2 dmol^-1) for 0% and 100% helicity, respectively. Table 14: Comparison between Kd, reversal of conformational changes of Exon1 Q46 and reduction of mHTT in comparison to untreated striatal neurons
The CD measurements protocol for Compound 101 was the same as outlined above except that from 206 nm - 210 nm and 220 nm - 224 nm, the step size was 0.2 nm, and the bandwidth was 1nm.
In general terms: Circular dichroism is the unequal absorption of left and right circularly polarised light.

As a reminder, the viability is a read-out of living cells in per cent, often relative to untreated cells. A word on the Kd: it is the constant that tells how readily two partners part at equilibrium.

Exon1 Q46, sequence (P42858 with tags, fused parts or gaps with the stated changes): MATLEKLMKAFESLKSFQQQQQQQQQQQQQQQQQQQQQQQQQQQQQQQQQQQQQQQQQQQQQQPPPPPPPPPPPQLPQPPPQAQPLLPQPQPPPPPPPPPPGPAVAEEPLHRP
T1 sequence (P42858 with tags, fused parts or gaps with the stated changes): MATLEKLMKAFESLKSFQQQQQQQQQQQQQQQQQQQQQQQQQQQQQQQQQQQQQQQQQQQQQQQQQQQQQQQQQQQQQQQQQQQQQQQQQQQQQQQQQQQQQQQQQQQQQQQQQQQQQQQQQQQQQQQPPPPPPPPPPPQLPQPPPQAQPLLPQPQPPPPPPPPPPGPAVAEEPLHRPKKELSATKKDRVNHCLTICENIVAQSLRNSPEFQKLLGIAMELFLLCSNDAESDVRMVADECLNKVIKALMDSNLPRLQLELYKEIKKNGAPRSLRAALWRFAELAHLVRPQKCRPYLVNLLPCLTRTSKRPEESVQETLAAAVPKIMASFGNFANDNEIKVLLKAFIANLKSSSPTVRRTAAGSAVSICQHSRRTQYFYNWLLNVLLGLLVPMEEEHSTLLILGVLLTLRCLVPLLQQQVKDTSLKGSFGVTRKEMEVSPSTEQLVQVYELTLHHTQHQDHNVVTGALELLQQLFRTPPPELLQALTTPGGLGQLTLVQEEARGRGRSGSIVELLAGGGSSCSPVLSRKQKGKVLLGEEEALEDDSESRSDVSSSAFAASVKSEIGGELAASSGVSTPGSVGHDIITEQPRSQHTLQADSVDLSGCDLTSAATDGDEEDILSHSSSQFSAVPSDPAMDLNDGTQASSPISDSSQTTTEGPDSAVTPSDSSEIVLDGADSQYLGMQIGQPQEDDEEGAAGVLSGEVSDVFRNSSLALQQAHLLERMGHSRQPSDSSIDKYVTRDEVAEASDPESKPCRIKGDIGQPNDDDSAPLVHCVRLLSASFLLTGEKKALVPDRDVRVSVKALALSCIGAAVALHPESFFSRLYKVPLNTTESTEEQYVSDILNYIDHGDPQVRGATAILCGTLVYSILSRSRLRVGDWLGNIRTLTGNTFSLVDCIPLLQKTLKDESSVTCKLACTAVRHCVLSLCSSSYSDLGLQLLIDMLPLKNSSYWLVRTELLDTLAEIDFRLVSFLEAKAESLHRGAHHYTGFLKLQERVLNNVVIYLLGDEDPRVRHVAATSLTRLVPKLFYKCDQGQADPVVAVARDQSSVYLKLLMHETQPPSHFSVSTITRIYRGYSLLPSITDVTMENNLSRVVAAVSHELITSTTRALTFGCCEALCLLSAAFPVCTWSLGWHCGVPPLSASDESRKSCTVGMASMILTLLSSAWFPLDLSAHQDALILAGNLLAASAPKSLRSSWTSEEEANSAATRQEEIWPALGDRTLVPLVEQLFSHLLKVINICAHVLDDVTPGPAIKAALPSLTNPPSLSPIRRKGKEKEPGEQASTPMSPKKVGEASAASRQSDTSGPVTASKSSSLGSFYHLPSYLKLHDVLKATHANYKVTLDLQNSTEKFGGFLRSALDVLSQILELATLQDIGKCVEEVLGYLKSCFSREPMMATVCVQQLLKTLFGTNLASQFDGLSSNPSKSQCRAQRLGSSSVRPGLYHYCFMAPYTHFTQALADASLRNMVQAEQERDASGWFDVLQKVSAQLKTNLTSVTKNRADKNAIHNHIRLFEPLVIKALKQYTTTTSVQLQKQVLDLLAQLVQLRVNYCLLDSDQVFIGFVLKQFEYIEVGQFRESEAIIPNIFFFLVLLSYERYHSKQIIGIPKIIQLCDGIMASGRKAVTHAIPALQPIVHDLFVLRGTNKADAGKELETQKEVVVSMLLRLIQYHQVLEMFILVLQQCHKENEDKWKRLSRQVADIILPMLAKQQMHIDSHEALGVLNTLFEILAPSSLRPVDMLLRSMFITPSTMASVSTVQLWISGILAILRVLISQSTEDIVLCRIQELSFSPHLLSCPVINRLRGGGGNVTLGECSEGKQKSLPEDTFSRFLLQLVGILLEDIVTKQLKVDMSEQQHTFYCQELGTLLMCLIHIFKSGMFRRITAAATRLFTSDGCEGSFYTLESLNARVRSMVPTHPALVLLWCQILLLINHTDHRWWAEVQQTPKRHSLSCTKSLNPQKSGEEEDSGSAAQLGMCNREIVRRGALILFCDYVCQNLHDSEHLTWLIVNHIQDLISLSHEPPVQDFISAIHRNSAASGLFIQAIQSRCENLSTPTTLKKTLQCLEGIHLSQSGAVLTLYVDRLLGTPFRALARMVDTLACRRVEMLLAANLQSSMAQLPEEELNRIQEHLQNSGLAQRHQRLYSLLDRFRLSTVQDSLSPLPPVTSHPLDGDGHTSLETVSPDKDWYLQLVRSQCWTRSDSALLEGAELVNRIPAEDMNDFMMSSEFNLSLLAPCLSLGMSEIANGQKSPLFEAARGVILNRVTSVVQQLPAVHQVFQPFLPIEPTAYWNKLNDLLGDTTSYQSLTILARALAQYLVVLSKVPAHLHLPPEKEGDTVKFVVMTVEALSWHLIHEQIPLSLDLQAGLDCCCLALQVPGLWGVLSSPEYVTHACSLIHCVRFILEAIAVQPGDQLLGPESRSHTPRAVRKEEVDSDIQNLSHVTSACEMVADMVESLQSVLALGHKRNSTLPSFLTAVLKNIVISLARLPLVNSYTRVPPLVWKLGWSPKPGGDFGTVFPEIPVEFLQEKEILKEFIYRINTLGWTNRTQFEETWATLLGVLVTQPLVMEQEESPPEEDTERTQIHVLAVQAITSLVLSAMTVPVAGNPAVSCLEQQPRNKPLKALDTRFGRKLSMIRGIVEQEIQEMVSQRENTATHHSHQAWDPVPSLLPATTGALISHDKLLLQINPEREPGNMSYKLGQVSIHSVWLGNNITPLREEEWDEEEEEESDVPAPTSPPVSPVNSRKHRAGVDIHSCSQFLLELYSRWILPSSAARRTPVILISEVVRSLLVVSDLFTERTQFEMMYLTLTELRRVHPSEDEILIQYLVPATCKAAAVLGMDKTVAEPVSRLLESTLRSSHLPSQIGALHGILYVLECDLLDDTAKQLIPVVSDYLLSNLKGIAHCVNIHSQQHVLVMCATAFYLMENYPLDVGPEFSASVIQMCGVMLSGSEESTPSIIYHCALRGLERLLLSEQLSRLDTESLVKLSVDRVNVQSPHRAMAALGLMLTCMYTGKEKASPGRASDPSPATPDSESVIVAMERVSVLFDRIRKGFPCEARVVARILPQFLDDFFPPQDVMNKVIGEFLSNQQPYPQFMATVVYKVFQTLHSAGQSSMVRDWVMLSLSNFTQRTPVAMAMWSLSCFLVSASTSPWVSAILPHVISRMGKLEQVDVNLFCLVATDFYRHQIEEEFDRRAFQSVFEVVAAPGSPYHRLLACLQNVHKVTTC

Consider `CON1CCC(NC(=O)c2ccc3[nH]c(C)c(C)c3c2)CC1` [Compound 115], for which the viability at 10 µM in the assay on STHdh 7/7 striatal cells was found to be 136%.

For the compound `Cc1[nH]c2ccc(C(=O)NCCNC(C)(C)C)cc2c1C` [Compound 50], the remaining activity at 10 µM on mHTT came to 72%. Further, the viability at 10 µM with STHdh 7/7 striatal cells is 40.9%; in assay [1], 67%.

Consider `Cc1[nH]c2ccc(C(=O)NC3CCC(N(C)C)CC3)cc2c1C` (stereo not drawn) [Compound 101, N-(4-(dimethylamino)cyclohexyl)-2,3-dimethyl-1H-indole-5-carboxamide], for which the “mHTT after 3 h heat shock and following 48 hours of compound treatment in comparison to untreated STHdh 111/111” value on mHTT amounted to 38%. For the same compound, the remaining activity at 10 µM at mHTT was found to be 38%. For the same compound, at Exon1 Q46, binding was characterised by a dissociation constant (Kd) of 70 nM. In addition, the “Fraction Helix fH” value at Exon1 Q46 (conc. Compound 0.01 µM) worked out at 20.5%; on Exon1 Q46 (conc. Compound 0.059 µM), 20.1%; on Exon1 Q46 (conc. Compound 0.158 µM), 19.9%; at Exon1 Q46 (conc. Compound 0.647 µM), 19.1%; at Exon1 Q46 (conc. Compound 1.62 µM), 19.0%; at Exon1 Q46 (conc. Compound 4.04 µM) it was 18.5%. For the same compound, the entries for the “Fraction Helix fH” value on Exon1 Q46 (conc. Compound 13.68 µM) and on Exon1 Q46 (conc. Compound 37.77 µM) were 18.7% and 18.2%, respectively.

As for `Cc1[nH]c2ccc(C(=O)NCC(C)(C)OCC3CC3)cc2c1C` [Compound 121], the viability at 10 µM with STHdh 7/7 striatal cells was found to be 100%.

As for `CCN(CC)CCNCc1ccc2[nH]c(C)c(C)c2c1` [Compound 122], the viability at 10 µM in the assay on STHdh 7/7 striatal cells turned out to be 91.2%.

In the case of `CC(C)N(CCNC(=O)c1ccc2[nH]c3c(c2c1)CCCC3)C(C)C` [Compound 34], the mHTT after treatment at mHTT is 56%. Besides, the viability at 10 µM in assay [1] (48 h) is 60%.

For the compound `COC[C@H](CCNC(=O)c1ccc2[nH]c(C)c(C)c2c1)OC` [Compound 120], the viability at 10 µM in the assay with STHdh 7/7 striatal cells was 100%.

On to `Cc1[nH]c2ccc(C(=O)N(C)CCN3C[C@@H](C)O[C@@H](C)C3)cc2c1C` [Compound 117], for which the viability at 10 µM in the assay on STHdh 7/7 striatal cells is 118%.

For the compound `O=C(NCCN1CCCCC1)c1ccc2[nH]c3c(c2c1)CCC3` [Compound 35], the remaining activity at 10 µM at mHTT was 56%. Further, the viability at 10 µM in assay [1] came to 103%.

For the compound `Cc1c(C)n(C)c2ccc(C(=O)NCCN(C(C)C)C(C)C)cc12` [Compound 39], the viability at 10 µM in the assay with STHdh 7/7 striatal cells is 154%; in assay [1] (48 h) it was 117%.

`Cc1[nH]c2ccc(C(=O)NCCN(C)C3CCCC3)cc2c1C` [Compound 55] showed a mHTT after treatment on mHTT of 91%. The viability at 10 µM in assay [1] (48 h) amounted to 67%.

For the compound `Cc1[nH]c2ccc(C(=O)NCCN3CCN(C)CC3)cc2c1C` [Compound 24], the remaining activity at 10 µM on mHTT is 47%. Moreover, the viability at 10 µM in assay [1] worked out at 103%.

As to `CCN(CCNC(=O)c1ccc2[nH]ccc2c1)C1CC1` [Compound 123], the viability at 10 µM in the assay on STHdh 7/7 striatal cells stood at 83.8%.

In the case of `Cc1[nH]c2ccc(C(=O)N(C)CCNC(=O)C(C)C)cc2c1C` [Compound 125], the viability at 10 µM in the assay on STHdh 7/7 striatal cells came out at 67.9%.

Turning to `CCc1[nH]c2ccc(C(=O)NCCN3CCOCC3)cc2c1C` [Compound 30], on mHTT, the remaining activity at 10 µM was 51%.

For the compound `CCc1c(C)[nH]c2ccc(C(=O)NCCN3CCN(C)CC3)cc12` [Compound 15], the remaining activity at 10 µM at mHTT is 42%.

`Cc1c(C)n(Cc2ccccc2)c2ccc(C(=O)NCCN(C)C)cc12` [Compound 118]: in the assay with STHdh 7/7 striatal cells, the viability at 10 µM is 110%.

For `Cc1[nH]c2ccc(C(=O)N3CCN(C(C)C)CC3)cc2c1C` [Compound 119], the viability at 10 µM with STHdh 7/7 striatal cells came out at 101%.

`CC(C)N(CCNC(=O)c1ccc2[nH]ccc2c1)C(C)C` [Compound 43]: at mHTT, the remaining activity at 10 µM was found to be 65%.

As to `CCc1[nH]c2ccc(C(=O)NCCN(CC)CC)cc2c1C` [Compound 38], the remaining activity at 10 µM at mHTT was 57%.

As to `CCc1[nH]c2ccc(C(=O)NCCN(C)C)cc2c1C` [Compound 37], the remaining activity at 10 µM at mHTT amounted to 56%.

On to `CCN(CC)C(=O)CNC(=O)c1ccc2[nH]c(C)c(C)c2c1` [Compound 116], for which the viability at 10 µM in the assay on STHdh 7/7 striatal cells is 118%.

On to `Cc1[nH]c2ccc(C(=O)N3CCCN(C(C)C)CC3)cc2c1C` [Compound 126], for which the viability at 10 µM with STHdh 7/7 striatal cells is 42.5%.

For `O=C(NCCN1CCOCC1)c1ccc2[nH]c3c(c2c1)CCC3` [Compound 8], the remaining activity at 10 µM on mHTT worked out at 38%.

In the case of `Cc1c(C)n(C)c2ccc(C(=O)NCCN3CCCC3)cc12` [Compound 46, 1,2,3-Trimethyl-N-(2-(pyrrolidin-1-yl)ethyl)-1H-indole-5-carboxamide], on mHTT, the remaining activity at 10 µM is 66%.

For the compound `CCc1[nH]c2ccc(C(=O)NCCN3CCN(C)CC3)cc2c1C` [Compound 9], at mHTT, the mHTT after treatment stood at 37%. Also, in assay [1] (48 h), the viability at 10 µM turned out to be 88%.

For the compound `CO[C@@H](CNC(=O)c1ccc2[nH]c(C)c(C)c2c1)C(C)C` [Compound 124], the viability at 10 µM with STHdh 7/7 striatal cells amounted to 76.2%.

With `Cc1[nH]c2ccc(C(=O)NCCN3CCC3)cc2c1C` [Compound 17, N-(2-(Azetidin-1-yl)ethyl)-2,3-dimethyl-1H-indole-5-carboxamide], the remaining activity at 10 µM at mHTT came to 44%.

On to `CCN(CC)CCNC(=O)c1ccc2[nH]c(C)c(C)c2c1` [Compound 21, N-(2-(Diethylamino)ethyl)-2,3-dimethyl-1H-indole-5-carboxamide], for which the remaining activity at 10 µM at mHTT was 46%.

Consider `O=C(NCCN1CCOCC1)c1ccc2[nH]c3c(c2c1)CCCC3` [Compound 12], for which the remaining activity at 10 µM on mHTT amounted to 40%.
